According to patent US20120157548A1, “USE OF CYCLOALIPHATIC DIOLS AS BIOCIDES” (BASF SE, priority 2009, published 2012):

What was measured:
[1] = system: P. aeruginosa NCIMB 10421; assay: Biocide test, MIC in tryptone soy broth; format: cell-based; conditions: 30° C., 48 hours; for MIC value, from: lower limit of MIC range; for MIC value, to: upper limit of MIC range
Procedure: (§1) For this, in each case a 40 percent strength by weight solution of a diol in propylene glycol was prepared at 60° C.
(§2) This solution was diluted with a double-strength soy solution (double-strength tryptone soy broth) as nutrient medium in the volume ratio 1:1. Further dilution with soy solution produced solutions with the following concentrations:
(§3) The following microorganisms were used to test the biocidal effect against various bacteria and fungi:
P. aeruginosa NCIMB 10421
(§4) Pure soy solution was used as negative control. The positive control used was a solution of 5 ml of soy solution which has been treated with 0.1 ml of the respective microorganism. The test solutions consisted of 5 ml of the above-described soy solutions of the diols in the particular concentration which have been mixed with 0.1 ml of the respective microorganism.
(§5) The samples and controls were incubated in the case of the bacteria at 30° C. for 48 hours, and in the case of fungi over 5 days at 25° C.
(§6) In each case, the MIC (Minimum Inhibitory Concentration) value was determined. This value indicates the minimum concentration above which the growth of the microorganisms was visibly hindered compared to the corresponding sample without addition of the diol.
(§7) The lower the MIC value, the greater the biocidal effect.
(§8) For example, this was evident from the occurrence of clouding or visible growth of the microorganism.
(§9) The MIC value stated is a range between the next higher concentration of a positive test and the same and/or lower concentration of a first negative test.

A. niger IMI 149007 = assay: Biocide test, MIC in tryptone soy broth; format: cell-based; conditions: 25° C., 5 days; for MIC value, from: lower limit of MIC range; for MIC value, to: upper limit of MIC range
Procedure: as §1, §2, §3, §4, §5, §6, §7, §8, §9

C. albicans NCPF 3179 = assay: Biocide test, MIC in tryptone soy broth; format: cell-based; conditions: 25° C., 5 days; for MIC value, from: lower limit of MIC range; for MIC value, to: upper limit of MIC range
Procedure: as §1, §2, §3, §4, §5, §6, §7, §8, §9

E. coli NCIMB 8545 = assay: Biocide test, MIC in tryptone soy broth; format: cell-based; conditions: 30° C., 48 hours; for MIC value, from: lower limit of MIC range; for MIC value, to: upper limit of MIC range
Procedure: as §1, §2, §3, §4, §5, §6, §7, §8, §9

P. vulgaris NCIMB 4175 = assay: Biocide test, MIC in tryptone soy broth; format: cell-based; conditions: 30° C., 48 hours; for MIC value, from: lower limit of MIC range; for MIC value, to: upper limit of MIC range
Procedure: as §1, §2, §3, §4, §5, §6, §7, §8, §9

S. aureus NCIMB 9578 = assay: Biocide test, MIC in tryptone soy broth; format: cell-based; conditions: 30° C., 48 hours; for MIC value, from: lower limit of MIC range; for MIC value, to: upper limit of MIC range
Procedure: as §1, §2, §3, §4, §5, §6, §7, §8, §9

[2] = system: series of tested microorganisms; assay: Biocide test, highest measured MIC from the series of tested microorganisms; format: cell-based; conditions: highest measured MIC of the six microorganisms; for Maximum MIC value, from: lower limit of range; for Maximum MIC value, to: upper limit of range
Procedure: as §3, §6, §9
In the last line of each of the tables below, a “maximum” value is listed. This value indicates the highest measured MIC value in each case from the series of tested microorganisms.

microorganisms = conditions: as stated for the comparison substances; cited from earlier work

Row | Molecule | MIC value, from [1] | MIC value, to [1] | MIC value, from (A. niger IMI 149007) | MIC value, to (A. niger IMI 149007) | MIC value, from (C. albicans NCPF 3179) | MIC value, to (C. albicans NCPF 3179) | MIC value, from (E. coli NCIMB 8545) | MIC value, to (E. coli NCIMB 8545) | MIC value, from (P. vulgaris NCIMB 4175) | MIC value, to (P. vulgaris NCIMB 4175) | MIC value, from (S. aureus NCIMB 9578) | MIC value, to (S. aureus NCIMB 9578) | Maximum MIC value, from [2] | Maximum MIC value, to [2] | biocidal effect (microorganisms)
1 | CC(O)CC(C)O (centres unmarked) [2,4-Pentanediol] | >50 000 ppm of diol | ≦100 000 ppm of diol | >200 000 ppm of diol | ≦400 000 ppm of diol | >50 000 ppm of diol | ≦100 000 ppm of diol | >50 000 ppm of diol | ≦100 000 ppm of diol | >50 000 ppm of diol | ≦100 000 ppm of diol | >50 000 ppm of diol | ≦100 000 ppm of diol | >200 000 ppm of diol | ≦400 000 ppm of diol | low biocidal effect
2 | Hydroxymethylbicyclo[2.2.1]hept-2-ylpropan-1-ol isomers [ENB-Diol] | >50 000 ppm of diol | ≦100 000 ppm of diol | >12 500 ppm of diol | ≦25 000 ppm of diol | >12 500 ppm of diol | ≦25 000 ppm of diol | >3 125 ppm of diol | ≦6 250 ppm of diol | >3 125 ppm of diol | ≦6 250 ppm of diol | >3 125 ppm of diol | ≦6 250 ppm of diol | >50 000 ppm of diol | ≦100 000 ppm of diol | 
3 | Hydroxymethylcyclohexylpropan-1-ol isomers [CHA-diol] | >50 000 ppm of diol | ≦100 000 ppm of diol | >200 000 ppm of diol | ≦400 000 ppm of diol | >6 250 ppm of diol | ≦12 500 ppm of diol | >3 125 ppm of diol | ≦6 250 ppm of diol | >3 125 ppm of diol | ≦6 250 ppm of diol | >6 250 ppm of diol | ≦12 500 ppm of diol | >200 000 ppm of diol | ≦400 000 ppm of diol | 
4 | CCCC(O)CO (centres unmarked) [1,2-Pentanediol] | >12 500 ppm of diol | ≦25 000 ppm of diol | >12 500 ppm of diol | ≦25 000 ppm of diol | >25 000 ppm of diol | ≦50 000 ppm of diol | >25 000 ppm of diol | ≦50 000 ppm of diol | >25 000 ppm of diol | ≦50 000 ppm of diol | >25 000 ppm of diol | ≦50 000 ppm of diol | >25 000 ppm of diol | ≦50 000 ppm of diol | high biocidal effect
5 | Hydroxymethylbicyclo[2.2.1]hept-2-ylmethanol isomers [2,5-2,6-DMNB] | >6 250 ppm of diol | ≦12 500 ppm of diol | >50 000 ppm of diol | ≦100 000 ppm of diol | >50 000 ppm of diol | ≦100 000 ppm of diol | >6 250 ppm of diol | ≦12 500 ppm of diol | >6 250 ppm of diol | ≦12 500 ppm of diol | >6 250 ppm of diol | ≦12 500 ppm of diol | >50 000 ppm of diol | ≦100 000 ppm of diol | 
6 | CC(O)CO (centres unmarked) [Propylene Glycol] | >100 000 ppm of diol | ≦200 000 ppm of diol | >200 000 ppm of diol | ≦400 000 ppm of diol | >200 000 ppm of diol | ≦400 000 ppm of diol | >200 000 ppm of diol | ≦400 000 ppm of diol | >100 000 ppm of diol | ≦200 000 ppm of diol | >200 000 ppm of diol | ≦400 000 ppm of diol | >200 000 ppm of diol | ≦400 000 ppm of diol | 
